According to BigSolDB 2.1:

O=S(=O)([O-])c1cccc2c(S(=O)(=O)[O-])cccc12.[Na+].[Na+]
solubility (mole fraction)
Conditions | in acetone | in ethanol | in isopropanol | in methanol | in water
283.15 K | 5.45e-05 | 0.000107 | 2.55e-05 | 0.00017 | 0.00572
293.15 K | 5.92e-05 | 0.00011 | 5.68e-05 | 0.000221 | 0.00664
303.15 K | 7.41e-05 | 0.00011 | 6.45e-05 | 0.000251 | 0.00784
313.15 K | 9.49e-05 | 0.000147 | 8.74e-05 | 0.00027 | 0.00919
323.15 K | 9.73e-05 | 0.000184 | 9.19e-05 | 0.00028 | 0.0106
